Source: publication PMC4994406, “Molecular cloning and characterization of a flavonoid-O-methyltransferase with broad substrate specificity and regioselectivity from Citrus depressa” (BMC Plant Biology, 2016)

Tests used:
[1] = biological target: T1, CdFOMT5 (Citrus depressa, UniProt A0A125T1T5); test: HPLC of methylated product; format: biochemical; conditions: 500 uM SAM, 100 uM substrate, 50 mM potassium phosphate pH 7.0, 30 °C, 1 h
T1 construct: gene FOMT5; full-length cDNA from fruit pericarp, C-terminal 6x His tag kept, pET21b(+) BamHI/SalI, E. coli BL21(DE3), Ni-Sepharose
T1 sequence (A0A125T1T5 1-353): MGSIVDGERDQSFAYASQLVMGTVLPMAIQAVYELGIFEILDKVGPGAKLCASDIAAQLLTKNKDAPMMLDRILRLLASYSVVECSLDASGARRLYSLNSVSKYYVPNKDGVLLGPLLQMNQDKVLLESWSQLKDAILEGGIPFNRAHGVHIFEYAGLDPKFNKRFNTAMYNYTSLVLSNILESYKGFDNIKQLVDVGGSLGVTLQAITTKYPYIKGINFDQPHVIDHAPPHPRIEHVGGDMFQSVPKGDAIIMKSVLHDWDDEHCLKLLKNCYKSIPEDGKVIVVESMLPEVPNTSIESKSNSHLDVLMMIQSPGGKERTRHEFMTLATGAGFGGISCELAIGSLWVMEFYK

[2] = biological target: T1, CdFOMT5; test: HPLC and LC-MS of O-methylated products; format: biochemical; conditions: 500 uM SAM, 100 uM substrate, 50 mM potassium phosphate pH 7.0, 30 °C, 1 h

| Structure (SMILES) | HPLC of methylated product [1] | HPLC and LC-MS of O-methylated products [2] |
| --- | --- | --- |
| O=c1c(O)c(-c2ccccc2)oc2ccccc12 [3-hydroxyflavone] | the highest activity was observed for 3-hydroxyflavone (flavonol) based on the peak area | – |
| O=c1c(O)c(-c2ccc(O)c(O)c2)oc2cc(O)cc(O)c12 [S, quercetin] | – | several peaks corresponding to O-methylated products were detected by HPLC analysis |
